The target of assay [1] is T1, CB2 receptor (Homo sapiens, UniProt P34972).
T1 construct: expressed in transfected cells
Kind of assay: Binding assay for CB2 agonists or inverse agonists (SK-N-MC membranes, [3H]-CP-55,940). The settings on record: for CB2 receptor binding percent inhibition: test concentration not stated. The essentials: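 IC50 came from percent-inhibition data over several compound concentrations, fitted by linear regression. Binding used semi-purified membranes of human CB2-transfected SK-N-MC cells, 90 min at 30 °C, pH 7.5 Tris-HCl with MgCl2, EDTA and BSA, then filtration and scintillation counting.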

The target in assay [2] is T2, CB1 receptor (Homo sapiens, UniProt P21554).
T2 construct: expressed in transfected cells
Put plainly: Binding assay for CB1 agonists or inverse agonists (SK-N-MC membranes, [3H]-CP-55,940). The note with it: for CB1 receptor binding average percent inhibition: value shown is an average percent inhibition (footnote 5), concentration not given; for CB1 receptor binding percent inhibition: test concentration not stated. The essentials: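 Radioligand displacement: [3H]-CP-55,940 at […], 90 min at 30° C, pH 7.5 Tris buffer with 0.5 mg/mL fatty-acid-free BSA, using semi-purified membranes of human-CB1-transfected SK-N-MC cells. Bound counts collected on GF/C filters, 10 uM WIN 55,212 for non-specific; IC50 from percent inhibition over several concentrations.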

For assay [3], the target named is T2, CB1 receptor. Put plainly: cell-based. The settings on record: SK-N-MC cells. An excerpt: The CB1 and CB2 receptors are G-protein coupled receptors (GPCR), which influence cell function via the Gi-protein. These receptors modulate the activity of intracellular adenylate cyclase, which in turn produces the intracellular signal messenger cyclic-AMP (cAMP).
At baseline, or during non-ligand bound conditions, these receptors are constitutively active and tonically suppress adenylate cyclase activity. The binding of an agonist causes further receptor activation and produces additional suppression of adenylate cyclase activity. The binding of an inverse agonist inhibits the constitutive activity of the receptors and results in an increase in adenylate cyclase activity.
By monitoring intracellular adenylate cyclase activity, the ability of compounds to act as agonists or inverse agonists can be determined.
Test compounds were evaluated in SK-N-MC cells which, using standard transfection procedures, were stably transfected with human cDNA for pcDNA3-CRE β-gal and pcDNA3 CB1 receptor (human) or pcDNA3 CB2 receptor (human). By expressing CRE β-gal, the cells produced β-galactosidase in response to CRE promoter activation by cAMP. Cells expressing CRE β-gal and either the human CB1 or CB2 receptor will produce less β-galactosidase when treated with a CB1/CB2 agonist and will produce more β-galactosidase when treated with a CB1/CB2 inverse agonist.
The cells were grown in 96-well plates under standard cell culture conditions at 37° C. in a 5% CO2 atmosphere and culture media (wherein the media was supplemented with 2 mM L-glutamine, […] sodium pyruvate, 10% FBS (fetal bovine serum) and antibiotics).
The change in forskolin induced β-galactosidase activity was determined by setting a vehicle treated cell's activity value at 100% and expressing the β-galactosidase activity measured in a corresponding compound treated cell as a percent of the vehicle treated cell activity.
The EC50 value for functional activity for compounds tested was calculated by linear regression and was obtained from studies in which varying compound concentrations were used.
Where an EC50 value was not obtained for a test compound, the value shown (in %) represents change in functional activity and was obtained from a study in which one compound concentration was used.

[4] abbreviates: Cannabinoid CB1 Receptor Binding IC50, calculated by linear regression from percent inhibition at various test concentrations.
Setting [5] is: CB1 Receptor Functional Inverse Agonist EC50, forskolin induced β-galactosidase activity.
The mark [6] stands for this setting: forskolin induced β-galactosidase activity, read-out: CB1 Receptor Functional Inverse Agonist EC50.
Setting [7] is: read-out: CB1 receptor binding percent inhibition, test concentration 1 μM (footnote 1).
Setting [8] is: read-out: CB1 receptor binding percent inhibition, test concentration 0.5 μM (footnote 10).
Setting [9] is: forskolin induced β-galactosidase activity, read-out: CB1 Receptor Functional Agonist EC50.
[10] abbreviates: read-out: CB1 receptor binding percent inhibition.

Each structure is given as a SMILES string. pEC50, pIC50: −log10 of the molar value. Like-named read-outs stand apart in the source and are kept apart here.

T1 sequence (P34972 whole entry): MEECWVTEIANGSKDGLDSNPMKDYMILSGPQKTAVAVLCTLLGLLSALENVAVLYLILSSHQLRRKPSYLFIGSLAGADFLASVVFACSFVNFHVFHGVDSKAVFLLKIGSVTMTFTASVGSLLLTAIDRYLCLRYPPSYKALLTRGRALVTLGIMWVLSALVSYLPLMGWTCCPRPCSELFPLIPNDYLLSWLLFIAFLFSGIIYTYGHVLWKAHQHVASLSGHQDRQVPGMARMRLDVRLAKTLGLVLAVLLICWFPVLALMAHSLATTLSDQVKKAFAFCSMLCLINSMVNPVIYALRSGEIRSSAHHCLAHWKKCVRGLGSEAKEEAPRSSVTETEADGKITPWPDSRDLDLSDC
T2 sequence (P21554 whole entry): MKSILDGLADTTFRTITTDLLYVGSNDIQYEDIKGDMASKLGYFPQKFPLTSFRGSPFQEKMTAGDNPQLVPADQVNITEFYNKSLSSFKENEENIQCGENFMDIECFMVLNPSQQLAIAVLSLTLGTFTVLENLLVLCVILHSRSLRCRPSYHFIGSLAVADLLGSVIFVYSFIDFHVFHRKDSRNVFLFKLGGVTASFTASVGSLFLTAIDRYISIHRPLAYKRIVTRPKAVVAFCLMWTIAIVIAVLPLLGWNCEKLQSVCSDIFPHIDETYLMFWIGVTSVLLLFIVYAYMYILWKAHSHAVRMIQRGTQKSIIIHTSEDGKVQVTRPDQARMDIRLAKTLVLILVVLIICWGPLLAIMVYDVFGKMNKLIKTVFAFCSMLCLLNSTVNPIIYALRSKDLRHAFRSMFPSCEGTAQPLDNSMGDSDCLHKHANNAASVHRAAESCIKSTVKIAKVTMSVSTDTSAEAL

`O=C(NN1CCCCC1)c1nn(-c2ccc(Cl)cc2Cl)c2c1CCCCC2Cc1cccc(F)c1` (stereo not shown) [Cpd 84, 1-(2,4-dichloro-phenyl)-8-(3-fluoro-benzyl)-1,4,5,6,7,8-hexahydro-cycloheptapyrazole-3-carboxylic acid piperidin-1-ylamide]: in assay [1], the “CB2 receptor binding percent inhibition” value was 11%. Further, the pIC50 (in general, the negative decadic logarithm of the IC50, by convention in mol/L) in assay [2] (setting [4]) was 6.15. The “CB1 receptor binding average percent inhibition” value in assay [2] is reported as 67%. The pEC50 (commonly the negative decadic logarithm of the EC50, by convention in mol/L) in assay [3] (setting [5]) was 7.00.

For the compound `O=C(NN1CCCCC1)c1nn(-c2ccc(Cl)cc2Cl)c2c1CCCCC2Cc1ccc(F)cc1` (stereo not shown) [Cpd 85, 1-(2,4-dichloro-phenyl)-8-(4-fluoro-benzyl)-1,4,5,6,7,8-hexahydro-cycloheptapyrazole-3-carboxylic acid piperidin-1-ylamide], in assay [1], the “CB2 receptor binding percent inhibition” value is given as 5%. Moreover, the “CB1 receptor binding average percent inhibition” value in assay [2] was “^(5)39%”. The pEC50 in assay [3] (setting [6]) is 6.52.

Consider `O=C(NN1CCOCC1)c1nn(-c2ccc(Cl)cc2Cl)c2c1CCCCC2Cc1cccc(F)c1` (stereo not shown) [Cpd 91, 1-(2,4-dichloro-phenyl)-8-(3-fluoro-benzyl)-1,4,5,6,7,8-hexahydro-cycloheptapyrazole-3-carboxylic acid morpholin-4-ylamide], for which, in assay [1], the “CB2 receptor binding percent inhibition” value amounted to 0%. Further, the pIC50 in assay [2] (setting [4]) is 6.52. Further, the inhibition at 1 µM in assay [2] (setting [7]) was 68%. Besides, the pEC50 in assay [3] (setting [5]) was 7.15.

With `CC12CCC(C1)C(C)(C)[C@H]2NC(=O)c1nn(-c2ccc(F)cc2F)c2c1CCCCC2Cc1cccc(F)c1` (stereo partly drawn) [Cpd 92, 1-(2,4-difluoro-phenyl)-8-(3-fluoro-benzyl)-1,4,5,6,7,8-hexahydro-cycloheptapyrazole-3-carboxylic acid [(2S)-1,3,3-trimethyl-bicyclo[2.2.1]hept-2-yl]-amide], the pIC50 was 6.70 in assay [1] (Cannabinoid CB2 Receptor Binding IC50, calculated by linear regression from percent inhibition at various test concentrations) and 7.00 in assay [2] (setting [4]). Besides, the inhibition at 1 µM in assay [1] (read-out: CB2 receptor binding percent inhibition, test concentration 1 μM (footnote 1)) was 82%; in assay [2] (setting [7]), 86%. Further, in assay [3] (setting [5]), the pEC50 was 7.05.

For `C[C@H](NS(=O)(=O)/C=C/c1nn(-c2ccc(F)cc2F)c2c1CCCCC2Cc1cccc(F)c1)c1ccccc1` (stereo partly drawn) [Cpd 93, (2E)-2-[1-(2,4-difluoro-phenyl)-8-(3-fluoro-benzyl)-1,4,5,6,7,8-hexahydro-cycloheptapyrazol-3-yl]-ethenesulfonic acid [(1S)-1-phenyl-ethyl]-amide], the “CB2 receptor binding percent inhibition” value in assay [1] was found to be 58%. Besides, the pIC50 in assay [2] (setting [4]) is 6.40. Further, the inhibition at 1 µM in assay [2] (setting [7]) came to 70%. Moreover, the pEC50 in assay [3] (setting [5]) was 7.30.

Regarding `C[C@H](NS(=O)(=O)/C=C/c1nn(-c2ccc(F)cc2F)c2c1CCCCC2Cc1cccc(F)c1)C1CCCCC1` (stereo partly drawn) [Cpd 94, (2E)-2-[1-(2,4-difluoro-phenyl)-8-(3-fluoro-benzyl)-1,4,5,6,7,8-hexahydro-cycloheptapyrazol-3-yl]-ethenesulfonic acid [(1S)-1-cyclohexyl-ethyl]-amide], in assay [1], the “CB2 receptor binding percent inhibition” value amounted to 1%. Further, the inhibition at 1 µM in assay [2] (setting [7]) was 38%. Besides, the pEC50 in assay [3] (setting [6]) is 6.70.

Regarding `CCOC(=O)[C@H]1C2C=CC(C2)[C@H]1NC(=O)c1nn(-c2ccc(F)cc2F)c2c1CCCCC2Cc1cccc(F)c1` (stereo partly drawn) [Cpd 99, (2S,3R)-3-{[1-(2,4-difluoro-phenyl)-8-(3-fluoro-benzyl)-1,4,5,6,7,8-hexahydro-cycloheptapyrazole-3-carbonyl]-amino}-bicyclo[2.2.1]hept-5-ene-2-carboxylic acid ethyl ester], in assay [1], the “CB2 receptor binding percent inhibition” value is on record as 24%. Further, in assay [2] (setting [7]), the inhibition at 1 µM amounted to 17%. Also, the pEC50 in assay [3] (setting [6]) was 6.70.

Take `COC(=O)[C@@H](Cc1ccc(O)cc1)NC(=O)c1nn(-c2ccc(Cl)cc2Cl)c2c1CCCCC2Cc1cccc(Cl)c1` (stereo partly drawn) [Cpd 102, (2R)-2-{[8-(3-chloro-benzyl)-1-(2,4-dichloro-phenyl)-1,4,5,6,7,8-hexahydro-cycloheptapyrazole-3-carbonyl]-amino}-3-(4-hydroxy-phenyl)-propionic acid methyl ester]: the “CB2 receptor binding percent inhibition” value in assay [1] was found to be 59%. Also, in assay [2] (setting [4]), the pIC50 is 6.22. In assay [2] (setting [8]), the inhibition at 0.5 µM turned out to be 55%. Also, the inhibition at 1 µM in assay [2] (setting [7]) came out at 77%. In addition, the pEC50 in assay [3] (setting [5]) was 7.15.

On to `C[C@H](NS(=O)(=O)/C=C/c1nn(C)c2c1CCCCC2Cc1cccc(F)c1)c1ccccc1` (stereo partly drawn) [Cpd 104, (2E)-2-[8-(3-fluoro-benzyl)-1-methyl-1,4,5,6,7,8-hexahydro-cycloheptapyrazol-3-yl]-ethenesulfonic acid [(1S)-1-phenyl-ethyl]-amide], for which the “CB2 receptor binding percent inhibition” value in assay [1] stood at 93%. Also, the inhibition at 1 µM in assay [2] (setting [7]) is 19%. For the same compound, the pEC50 in assay [3] (setting [5]) is 7.00.

As to `C[C@H](NS(=O)(=O)/C=C/c1nn(-c2ccc(F)cc2F)c2c1CCCCC2Cc1ccc(F)cc1)c1ccccc1` (stereo partly drawn) [Cpd 107, (2E)-2-[1-(2,4-difluoro-phenyl)-8-(4-fluoro-benzyl)-1,4,5,6,7,8-hexahydro-cycloheptapyrazol-3-yl]-ethenesulfonic acid [(1S)-1-phenyl-ethyl]-amide], the “CB2 receptor binding percent inhibition” value in assay [1] is reported as 64%. Moreover, the pIC50 in assay [2] (calculated by linear regression from percent inhibition at various test concentrations, read-out: Cannabinoid CB1 Receptor Binding IC50) was 6.52. In addition, the inhibition at 0.5 µM in assay [2] (setting [8]) was 59%. Moreover, the inhibition at 1 µM in assay [2] (setting [7]) amounted to 72%. In addition, in assay [3] (setting [9]), the pEC50 is 4.70.

In the case of `CCOC(=O)[C@@H]1C2CCC(C2)[C@@H]1NC(=O)c1nn(-c2ccc(F)cc2F)c2c1CCCCC2Cc1ccc(F)cc1` (stereo partly drawn) [Cpd 110, (2R,3S)-3-{[1-(2,4-difluoro-phenyl)-8-(4-fluoro-benzyl)-1,4,5,6,7,8-hexahydro-cycloheptapyrazole-3-carbonyl]-amino}-bicyclo[2.2.1]heptane-2-carboxylic acid ethyl ester], in assay [1], the “CB2 receptor binding percent inhibition” value is 59%. Further, in assay [2] (setting [10]), the inhibition at 0.5 µM came to 48% and the inhibition at 1 µM was 63%. Besides, the “CB1 receptor binding percent inhibition” value in assay [2] was 56%. For the same compound, the pEC50 in assay [3] (setting [5]) is 7.00.

For `CCOC(=O)[C@@H]1C2CCC(C2)[C@@H]1NC(=O)c1nn(-c2ccc(F)cc2F)c2c1CCCCC2Cc1cccc(F)c1` (stereo partly drawn) [Cpd 111, (2R,3S)-3-{[1-(2,4-difluoro-phenyl)-8-(3-fluoro-benzyl)-1,4,5,6,7,8-hexahydro-cycloheptapyrazole-3-carbonyl]-amino}-bicyclo[2.2.1]heptane-2-carboxylic acid ethyl ester], the “CB2 receptor binding percent inhibition” value in assay [1] turned out to be 65%. In addition, in assay [2] (setting [8]), the inhibition at 0.5 µM is 45%. Further, the inhibition at 1 µM in assay [2] (setting [7]) is 62%. Moreover, the “CB1 receptor binding percent inhibition” value in assay [2] is recorded as 54%. The same compound showed a pEC50 in assay [3] (setting [5]) of 7.05.

As for `O=C(NN1CCOCC1)c1nn(-c2ccc(F)cc2F)c2c1CCCCC2Cc1cccc(F)c1` (stereo not shown) [Cpd 116, 1-(2,4-difluoro-phenyl)-8-(3-fluoro-benzyl)-1,4,5,6,7,8-hexahydro-cycloheptapyrazole-3-carboxylic acid morpholin-4-ylamide], the “CB2 receptor binding percent inhibition” value in assay [1] turned out to be 24%. In assay [2] (setting [7]), the inhibition at 1 µM is 14%. The pEC50 in assay [3] (setting [9]) is 6.52.

On to `O=C(NN1CCOCC1)c1nn(-c2ccc(Cl)cc2Cl)c2c1CCCCC2Cc1cccc(Cl)c1` (stereo not shown) [Cpd 117, 8-(3-chloro-benzyl)-1-(2,4-dichloro-phenyl)-1,4,5,6,7,8-hexahydro-cycloheptapyrazole-3-carboxylic acid morpholin-4-ylamide], for which the “CB2 receptor binding percent inhibition” value in assay [1] is listed as 22%. Moreover, the inhibition at 1 µM in assay [2] (setting [7]) was determined as 44%. Moreover, in assay [3] (setting [6]), the pEC50 is 6.52.

These data come from patent US8378117B2 (priority 2005, dated 2013).
